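Interpolation was linear, between the two tested concentrations surrounding the appropriate level; five concentrations were tested over 48 hours in 96-well plates. Abbreviation: GI50, concentration required for 50% inhibition of growth.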 Activity calls are given as the source filed them. No stated cut-off is given here; in the data, active = GI50 up to about 1.1 µM and inactive = higher.
Key:
Test in all cases: growth of human tumour cells (NCI), 48 h
SNB-75 = test system: SNB-75
SK-MEL-5 = test system: SK-MEL-5
UACC-257 = test system: UACC-257
HOP-18 = test system: HOP-18
U-251 = test system: U-251
SF-295 = test system: SF-295
RXF 631 = test system: RXF 631
LOX IMVI = test system: LOX IMVI
LXFL 529 = test system: LXFL 529
UACC-62 = test system: UACC-62
COLO 205 = test system: COLO 205
DMS-273 = test system: DMS-273
SF-539 = test system: SF-539
SF-268 = test system: SF-268
NCI-H522 = test system: NCI-H522
K562 = test system: K562
CAKI-1 = test system: CAKI-1
OVCAR-3 = test system: OVCAR-3
Malme-3M = test system: Malme-3M
TK-10 = test system: TK-10
NCI-H226 = test system: NCI-H226
IGROV-1 = test system: IGROV-1
DLD-1 = test system: DLD-1
SNB-19 = test system: SNB-19
NCI-H23 = test system: NCI-H23
SN12C = test system: SN12C
KM12 = test system: KM12
ACHN = test system: ACHN
SNB-78 = test system: SNB-78
RPMI-8226 = test system: RPMI-8226
HCT-116 = test system: HCT-116
HCT-15 = test system: HCT-15
OVCAR-4 = test system: OVCAR-4
UO-31 = test system: UO-31
DMS-114 = test system: DMS-114
OVCAR-8 = test system: OVCAR-8
NCI-H460 = test system: NCI-H460
SW-620 = test system: SW-620
786-0 = test system: 786-0
A498 = test system: A498
MOLT-4 = test system: MOLT-4
HL-60 = test system: HL-60
CCRF-CEM = test system: CCRF-CEM
SK-MEL-28 = test system: SK-MEL-28
KM-20L2 = test system: KM-20L2
OVCAR-5 = test system: OVCAR-5
M19-MEL = test system: M19-MEL
HOP-92 = test system: HOP-92
SK-MEL-2 = test system: SK-MEL-2
M14 = test system: M14
SK-OV-3 = test system: SK-OV-3
XF498 = test system: XF498
EKVX = test system: EKVX
RXF 393 = test system: RXF 393
A549 = test system: A549
HT-29 = test system: HT-29
HOP-62 = test system: HOP-62

O=c1[nH]cc(COCCO)c(=O)[nH]1
GI50 (SNB-75): > 100 µM (inactive) | GI50 (SK-MEL-5): > 100 µM (inactive) | GI50 (UACC-257): > 100 µM (inactive) | GI50 (HOP-18): > 100 µM (inactive) | GI50 (U-251): > 100 µM (inactive) | GI50 (SF-295): > 100 µM (inactive) | GI50 (RXF 631): > 100 µM (inactive) | GI50 (LOX IMVI): > 100 µM (inactive) | GI50 (LXFL 529): > 100 µM (inactive) | GI50 (UACC-62): > 100 µM (inactive) | GI50 (COLO 205): > 100 µM (inactive) | GI50 (DMS-273): > 100 µM (inactive) | GI50 (SF-539): > 100 µM (inactive) | GI50 (SF-268): > 100 µM (inactive) | GI50 (NCI-H522): > 100 µM (inactive) | GI50 (K562): > 100 µM (inactive) | GI50 (CAKI-1): > 100 µM (inactive) | GI50 (OVCAR-3): > 100 µM (inactive) | GI50 (Malme-3M): > 100 µM (inactive) | GI50 (TK-10): > 100 µM (inactive) | GI50 (NCI-H226): > 100 µM (inactive) | GI50 (IGROV-1): > 100 µM (inactive) | GI50 (DLD-1): > 100 µM (inactive) | GI50 (SNB-19): > 100 µM (inactive) | GI50 (NCI-H23): > 100 µM (inactive) | GI50 (SN12C): > 100 µM (inactive) | GI50 (KM12): > 100 µM (inactive) | GI50 (ACHN): > 100 µM (inactive) | GI50 (SNB-78): > 100 µM (inactive) | GI50 (RPMI-8226): > 100 µM (inactive) | GI50 (HCT-116): > 100 µM (inactive) | GI50 (HCT-15): > 100 µM | GI50 (OVCAR-4): > 100 µM (inactive) | GI50 (UO-31): > 100 µM (inactive) | GI50 (DMS-114): > 100 µM (inactive) | GI50 (OVCAR-8): > 100 µM (inactive) | GI50 (NCI-H460): > 100 µM (inactive) | GI50 (SW-620): > 100 µM (inactive) | GI50 (786-0): > 100 µM (inactive) | GI50 (A498): > 100 µM (inactive) | GI50 (MOLT-4): > 100 µM (inactive) | GI50 (HL-60): > 100 µM (inactive) | GI50 (CCRF-CEM): > 100 µM (inactive) | GI50 (SK-MEL-28): > 100 µM (inactive) | GI50 (KM-20L2): > 100 µM (inactive) | GI50 (OVCAR-5): > 100 µM (inactive) | GI50 (M19-MEL): > 100 µM (inactive) | GI50 (HOP-92): > 100 µM (inactive) | GI50 (SK-MEL-2): > 100 µM (inactive) | GI50 (M14): > 100 µM (inactive) | GI50 (SK-OV-3): > 100 µM (inactive) | GI50 (XF498): > 100 µM (inactive) | GI50 (EKVX): > 100 µM (inactive) | GI50 (RXF 393): > 100 µM (inactive) | GI50 (A549): > 100 µM (inactive) | GI50 (HT-29): > 100 µM (inactive) | GI50 (HOP-62): > 100 µM (inactive)

Source: ChEMBL document CHEMBL1201862, “PubChem BioAssay data set” (2004)
